Results published in ChEMBL document CHEMBL4308834, “Novel Allosteric Activators for Ferroptosis Regulator Glutathione Peroxidase 4” (J Med Chem, 2018).
Active and inactive are the calls of the source. No cut-off for these calls is given here.

How the values were obtained:
Homo sapiens [1] = species on record: Homo sapiens; assay: (§1) Activation of recombinant human GPX4 D21A/U46C double mutant expressed in Escherichia coli M15 assessed as increase in oxidized glutathione-mediated oxidation of NADPH to NADP+ using tert-butyl hydroperoxide as substrate preincubated for 5 mins followed by substrate addition measured for 6 mins by glutathione reductase enzyme coupled fluorescence assay relative to GPX4 U46C mutant control
[2] = molecular target: T1, Phospholipid hydroperoxide glutathione peroxidase GPX4 (Homo sapiens) (UniProt P36969); assay: Activation of GPX4 in A23187-stimulated human PMN leukocytes assessed as increase in 15-HETE preincubated for 15 mins followed by A23187 addition and measured after 120 mins by LC-MS analysis
T1 sequence (whole entry): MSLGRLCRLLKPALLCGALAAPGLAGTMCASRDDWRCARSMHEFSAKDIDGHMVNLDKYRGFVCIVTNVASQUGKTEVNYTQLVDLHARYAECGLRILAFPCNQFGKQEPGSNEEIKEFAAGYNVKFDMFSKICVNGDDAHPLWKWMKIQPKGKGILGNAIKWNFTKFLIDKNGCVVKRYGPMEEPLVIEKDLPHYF

[3] = molecular target: T1, Phospholipid hydroperoxide glutathione peroxidase GPX4 (Homo sapiens); assay: Activation of GPX4 in A23187-stimulated human PMN leukocytes assessed as increase in 5-HETE/LTB4 ratio preincubated for 15 mins followed by A23187 addition and measured after 120 mins by LC-MS analysis
[4] = molecular target: T2, Prostaglandin G/H synthase 2 (Homo sapiens) (UniProt P35354); assay: Inhibition of COX2 (unknown origin) at 500 uM preincubated for 15 mins followed by arachidonic acid substrate addition in presence of TMPD by spectrophotometric method
T2 sequence (whole entry): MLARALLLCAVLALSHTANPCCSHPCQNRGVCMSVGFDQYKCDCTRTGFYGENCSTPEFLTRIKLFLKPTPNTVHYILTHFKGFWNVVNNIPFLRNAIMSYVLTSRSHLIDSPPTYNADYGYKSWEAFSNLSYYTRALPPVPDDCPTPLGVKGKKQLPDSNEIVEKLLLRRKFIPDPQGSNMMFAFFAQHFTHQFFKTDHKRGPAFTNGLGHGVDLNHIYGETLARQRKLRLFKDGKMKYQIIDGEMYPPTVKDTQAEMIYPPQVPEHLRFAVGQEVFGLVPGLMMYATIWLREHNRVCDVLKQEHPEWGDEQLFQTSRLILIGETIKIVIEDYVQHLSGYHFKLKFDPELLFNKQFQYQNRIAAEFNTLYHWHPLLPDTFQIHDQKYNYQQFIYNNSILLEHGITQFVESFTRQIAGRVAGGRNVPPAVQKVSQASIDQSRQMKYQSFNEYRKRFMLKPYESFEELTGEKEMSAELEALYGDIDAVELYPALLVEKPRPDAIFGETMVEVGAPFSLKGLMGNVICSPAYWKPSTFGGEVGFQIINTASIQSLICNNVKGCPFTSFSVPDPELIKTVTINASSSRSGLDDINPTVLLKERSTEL

[5] = Iron chelating activity assessed as compound-Fe2+ complex formation after 10 mins by Prussian blue assay
Homo sapiens [6] = species on record: Homo sapiens; assay: as §1, with “recombinant His-tagged” for “recombinant”, “human cytosolic” for “human”, “U46C” for “D21A/U46C double”, “NADP+ at 0.4 to 250 uM” for “NADP+”, “to” for “to GPX4 U46C mutant”
[7] = molecular target: T1, Phospholipid hydroperoxide glutathione peroxidase GPX4 (Homo sapiens); assay: Activation of GPX4 (unknown origin) expressed in HEK293T cells harboring luc2P/NF-kBRE/Hygro plasmid assessed as inhibition of TNFalpha-stimulated NFkB activation preincubated for 30 mins followed by TNFalpha addition and measured after 6 hrs by luciferase reporter gene assay; assay type: cell-based
[8] = molecular target: T1, Phospholipid hydroperoxide glutathione peroxidase GPX4 (Homo sapiens); assay: Activation of GPX4 (unknown origin) expressed in HEK293T cells harboring luc2P/NF-kBRE/Hygro plasmid assessed as inhibition of IL1beta-stimulated NFkB activation preincubated for 30 mins followed by […] and measured after 6 hrs by luciferase reporter gene assay; assay type: cell-based
[9] = molecular target: T1, Phospholipid hydroperoxide glutathione peroxidase GPX4 (Homo sapiens); assay: Activation of GPX4 in A23187-stimulated human PMN leukocytes assessed as increase in 12-HETE preincubated for 15 mins followed by A23187 addition and measured after 120 mins by LC-MS analysis
Homo sapiens [10] = species on record: Homo sapiens; assay: as §1, with “recombinant His-tagged” for “recombinant”, “human cytosolic” for “human”, “U46C” for “D21A/U46C double”, “NADP+ at 200 uM” for “NADP+”, “to” for “to GPX4 U46C mutant”
[11] = molecular target: T3, Polyunsaturated fatty acid lipoxygenase ALOX12 (Homo sapiens) (UniProt P18054); assay: Inhibition of 12-LOX (unknown origin) at 500 uM preincubated for 1 mins followed by arachidonic acid substrate addition by spectrophotometric method
T3 sequence (whole entry): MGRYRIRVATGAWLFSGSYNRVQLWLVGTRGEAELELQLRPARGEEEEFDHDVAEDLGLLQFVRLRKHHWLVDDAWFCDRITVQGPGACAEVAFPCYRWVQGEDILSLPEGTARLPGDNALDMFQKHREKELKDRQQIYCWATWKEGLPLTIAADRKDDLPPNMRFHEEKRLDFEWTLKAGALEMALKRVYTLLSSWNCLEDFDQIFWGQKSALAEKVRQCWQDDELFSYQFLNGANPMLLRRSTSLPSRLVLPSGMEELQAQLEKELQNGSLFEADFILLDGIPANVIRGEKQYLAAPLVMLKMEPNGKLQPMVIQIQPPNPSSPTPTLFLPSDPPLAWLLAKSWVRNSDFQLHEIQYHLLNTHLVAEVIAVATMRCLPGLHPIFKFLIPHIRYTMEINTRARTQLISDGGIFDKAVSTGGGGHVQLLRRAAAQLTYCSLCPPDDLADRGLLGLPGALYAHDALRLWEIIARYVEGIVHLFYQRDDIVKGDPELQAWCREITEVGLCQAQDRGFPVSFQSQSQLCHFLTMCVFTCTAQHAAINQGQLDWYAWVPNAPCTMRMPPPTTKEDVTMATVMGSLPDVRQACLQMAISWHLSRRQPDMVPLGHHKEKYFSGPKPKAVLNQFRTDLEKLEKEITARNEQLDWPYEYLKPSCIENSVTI

Homo sapiens [12] = species on record: Homo sapiens; assay: as §1, with “D23A/U46C” for “D21A/U46C”

EC150 (Homo sapiens [1]): 618 µM | Activity [2]: Dose-dependent effect | Activity [3]: Dose-dependent effect | inhibition [4]: inactive | Activity [5]: inactive | Emax (Homo sapiens [6]): 263% | inhibition [7]: Dose-dependent effect | inhibition [8]: Dose-dependent effect | Activity [9]: Dose-dependent effect | Activity (Homo sapiens [10]): 127% | inhibition [11]: inactive | EC150 (Homo sapiens [12]): 372 µM
SMILES: NS(=O)(=O)c1ccc(NC(S)=NCc2ccc(Cl)cc2)cc1
